Measured values taken from US8524755B2 (priority 2009, dated 2013).

How the values were obtained:
Histamine H2 (h) = target: T1, Histamine H2 (h) (Homo sapiens, UniProt P25021); experiment: Binding H2 (h) (aa); settings: read-out: % Inhibition of Control Specific Binding @ 10 μM
T1 construct: expressed in transfected cells; host or cells: CHO cells
Experimental: (§1) Radioligand binding assay methods utilized to measure the activity of compounds of the invention will be familiar to those skilled in the art. In each assay case, the assay components such as, for example, the cell-type, ligand, reference compound and the like, will be familiar to practitioners of such an assay.
(§2) Analysis and Expression of Results: Compounds of the invention were tested in the biochemical assays and percent inhibition of specific binding was determined. The specific ligand binding to the receptors is defined as the difference between the total binding and the nonspecific binding determined in the presence of an excess of unlabelled ligand. The results are expressed as a percent inhibition of control specific binding (100−((measured specific binding/control specific binding)×100)) obtained in the presence of test compounds.

Somatostatin sst5 (h) = target: T2, Somatostatin sst5 (h) (Homo sapiens, UniProt P35346); experiment: Binding sst5 (h) (ag); settings: read-out: % Inhibition of Control Specific Binding @ 10 μM
T2 construct: expressed in transfected cells; host or cells: CHO cells
T2 sequence (P35346 whole entry): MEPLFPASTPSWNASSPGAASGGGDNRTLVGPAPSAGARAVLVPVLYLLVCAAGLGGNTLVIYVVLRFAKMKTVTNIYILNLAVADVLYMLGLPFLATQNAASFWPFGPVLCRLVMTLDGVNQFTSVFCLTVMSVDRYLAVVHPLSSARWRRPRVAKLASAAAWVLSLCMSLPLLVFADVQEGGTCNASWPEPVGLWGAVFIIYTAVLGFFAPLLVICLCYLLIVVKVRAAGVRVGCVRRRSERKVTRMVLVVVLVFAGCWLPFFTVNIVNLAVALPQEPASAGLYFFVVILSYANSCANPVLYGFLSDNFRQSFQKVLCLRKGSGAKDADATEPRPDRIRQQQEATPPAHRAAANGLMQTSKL
Experimental: as §1, §2

Muscarinic M (ns) = experiment: Binding M (ns) (aa); design: species or system rat
Experimental: as §1, §2

COMT = experiment: Enzyme assay COMT; assay type: biochemical, porcine
From the text: (§3) The enzyme assays provided below will be familiar to those skilled in the art.
(§4) Analysis and Expression of Results: The results are expressed as a percent of control specific activity ((measured specific activity/control specific activity)×100) obtained in the presence of the test compounds.

Angiotensin AT2 (h) = target: T3, Angiotensin AT2 (h) (Homo sapiens, UniProt P50052); experiment: Binding AT2 (h); settings: AT2 (h) (aa), read-out: % Inhibition of Control Specific Binding @ 10 μM
T3 construct: expressed in transfected cells; host or cells: CHO cells
T3 sequence (P50052 1-363): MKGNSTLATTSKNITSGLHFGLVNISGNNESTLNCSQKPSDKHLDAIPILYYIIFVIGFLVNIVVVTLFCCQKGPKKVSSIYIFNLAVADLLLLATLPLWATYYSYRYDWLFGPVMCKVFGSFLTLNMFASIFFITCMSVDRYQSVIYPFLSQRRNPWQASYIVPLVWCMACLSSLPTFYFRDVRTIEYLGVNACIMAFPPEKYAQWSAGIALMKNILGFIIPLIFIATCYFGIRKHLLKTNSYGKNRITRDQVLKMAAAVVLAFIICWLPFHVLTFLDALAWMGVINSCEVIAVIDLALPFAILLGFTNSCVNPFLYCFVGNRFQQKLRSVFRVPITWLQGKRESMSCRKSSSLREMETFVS
Experimental: as §1, §2

[1] = [14C]RD162′ radio-HPLC metabolite profile in Pooled Rat Plasma; assay type: in vivo, Sprague Dawley rats; settings: [14C]RD162′ 100 mg/kg/day oral, day 7, 4 h
Experimental: The rats were dosed once a day for seven consecutive days; four hours after dosing on the seventh day, plasma was collected from all three rats. The plasma samples were stored at approximately −70° C. or colder.
Positive ion electrospray LC/MS and LC/MS/MS were used to analyze the metabolites.
To prepare the Pooled Rat Plasma for HPLC analysis, approximately 1 g of the plasma sample was combined with acetonitrile (ACN, sample:ACN, 1:3, v:v), vortex mixed, sonicated in cold water, centrifuged, and the supernatants were removed. The extraction was repeated twice and the respective supernatants were combined. […] The combined supernatants were evaporated to dryness and reconstituted in 1 mL of 0.1% formic acid in reverse osmosis (RO) water:ACN: methanol (MeOH, 50:45:5, v:v:v). […] The reconstituted sample was analyzed by HPLC to determine the metabolite profile with fractions collected at 10-second intervals and analyzed by solid scintillation counting.
The prepared samples were analyzed using the following LC/MS/MS conditions: HPLC: Hewlett Packard 1100 series; Mobile Phase: 0.1% formic acid in reverse osmosis water (A) and acetonitrile (B); Column: Agilent Eclipse XDB-C18, 4.6×150 mm, 5 μm; Guard column: Phenomenex Security Guard Cartridge C18, 3×4 mm; Column temperature: 20° C.; Gradient: 20-80% B in 40 min; Flow Rate: 1.5 mL/min.

acetylcholinesterase (h) = target: T4, acetylcholinesterase (h) (Homo sapiens, UniProt P22303); experiment: Enzyme assay acetylcholinesterase (h); assay type: biochemical; settings: read-out: % Inhibition of Control Values @ 10 μM
T4 construct: host or cells: HEK-293 cells
T4 sequence (P22303 32-614): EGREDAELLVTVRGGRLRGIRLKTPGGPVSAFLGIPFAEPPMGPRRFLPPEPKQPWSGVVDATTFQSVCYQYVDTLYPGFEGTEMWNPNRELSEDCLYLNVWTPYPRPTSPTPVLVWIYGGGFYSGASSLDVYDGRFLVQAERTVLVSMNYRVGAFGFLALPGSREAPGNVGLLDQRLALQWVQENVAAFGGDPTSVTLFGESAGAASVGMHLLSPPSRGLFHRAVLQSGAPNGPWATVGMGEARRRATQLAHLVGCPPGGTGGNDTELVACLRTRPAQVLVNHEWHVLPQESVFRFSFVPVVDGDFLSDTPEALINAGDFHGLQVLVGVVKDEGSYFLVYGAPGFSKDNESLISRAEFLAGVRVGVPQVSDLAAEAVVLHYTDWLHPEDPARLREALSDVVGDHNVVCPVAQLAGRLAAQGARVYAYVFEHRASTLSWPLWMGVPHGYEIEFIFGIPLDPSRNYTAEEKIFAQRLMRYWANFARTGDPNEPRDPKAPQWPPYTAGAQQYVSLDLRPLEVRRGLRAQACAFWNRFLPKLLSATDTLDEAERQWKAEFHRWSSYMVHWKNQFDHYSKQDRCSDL
From the text: as §3, §4

tyrosine hydroxylase = target: T5, tyrosine hydroxylase (Rattus norvegicus, UniProt P04177); experiment: Enzyme assay tyrosine hydroxylase; assay type: biochemical; settings: read-out: % Inhibition of Control Values @ 10 μM
T5 construct: rat striatum; from tissue; host or cells: rat striatum
T5 sequence (P04177 whole entry): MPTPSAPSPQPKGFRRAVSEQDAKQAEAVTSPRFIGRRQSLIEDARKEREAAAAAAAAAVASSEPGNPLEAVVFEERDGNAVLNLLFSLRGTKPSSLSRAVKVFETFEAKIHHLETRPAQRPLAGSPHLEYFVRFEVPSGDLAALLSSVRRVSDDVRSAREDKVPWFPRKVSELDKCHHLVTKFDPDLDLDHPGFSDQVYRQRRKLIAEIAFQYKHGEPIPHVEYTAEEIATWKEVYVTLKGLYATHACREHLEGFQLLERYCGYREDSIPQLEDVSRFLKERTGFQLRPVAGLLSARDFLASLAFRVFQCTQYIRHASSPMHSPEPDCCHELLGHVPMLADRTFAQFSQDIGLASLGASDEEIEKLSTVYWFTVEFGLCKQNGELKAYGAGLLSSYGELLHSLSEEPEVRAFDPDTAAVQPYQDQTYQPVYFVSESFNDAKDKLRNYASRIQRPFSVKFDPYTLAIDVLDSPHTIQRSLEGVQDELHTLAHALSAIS
From the text: as §3, §4

PDE1B (h) = target: T6, PDE1B (h) (Homo sapiens, UniProt Q01064); experiment: Enzyme assay PDE1B (h); assay type: biochemical; settings: read-out: % Inhibition of Control Values @ 10 μM
T6 construct: host or cells: Sf9 cells
T6 sequence (Q01064 whole entry): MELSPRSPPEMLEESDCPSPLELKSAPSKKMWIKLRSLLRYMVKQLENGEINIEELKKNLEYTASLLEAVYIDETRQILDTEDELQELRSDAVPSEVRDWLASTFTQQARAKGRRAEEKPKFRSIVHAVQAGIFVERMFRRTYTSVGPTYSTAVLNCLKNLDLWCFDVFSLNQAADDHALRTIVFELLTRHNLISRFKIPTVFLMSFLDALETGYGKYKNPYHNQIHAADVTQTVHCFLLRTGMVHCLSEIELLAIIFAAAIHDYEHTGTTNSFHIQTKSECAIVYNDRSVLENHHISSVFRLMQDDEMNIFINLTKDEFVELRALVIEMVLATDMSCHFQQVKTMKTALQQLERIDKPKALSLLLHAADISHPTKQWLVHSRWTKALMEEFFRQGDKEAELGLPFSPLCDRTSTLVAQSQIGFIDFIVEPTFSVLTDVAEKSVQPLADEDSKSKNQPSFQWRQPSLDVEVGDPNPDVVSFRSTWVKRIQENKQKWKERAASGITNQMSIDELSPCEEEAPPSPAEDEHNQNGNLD
From the text: as §3, §4

Dopamine D4.4 (h) = target: T7, Dopamine D4.4 (h) (Homo sapiens, UniProt P21917); experiment: Binding D4.4 (h) (aa); settings: read-out: % Inhibition of Control Specific Binding @ 10 μM
T7 construct: expressed in transfected cells; host or cells: CHO cells
T7 sequence (P21917 1-419): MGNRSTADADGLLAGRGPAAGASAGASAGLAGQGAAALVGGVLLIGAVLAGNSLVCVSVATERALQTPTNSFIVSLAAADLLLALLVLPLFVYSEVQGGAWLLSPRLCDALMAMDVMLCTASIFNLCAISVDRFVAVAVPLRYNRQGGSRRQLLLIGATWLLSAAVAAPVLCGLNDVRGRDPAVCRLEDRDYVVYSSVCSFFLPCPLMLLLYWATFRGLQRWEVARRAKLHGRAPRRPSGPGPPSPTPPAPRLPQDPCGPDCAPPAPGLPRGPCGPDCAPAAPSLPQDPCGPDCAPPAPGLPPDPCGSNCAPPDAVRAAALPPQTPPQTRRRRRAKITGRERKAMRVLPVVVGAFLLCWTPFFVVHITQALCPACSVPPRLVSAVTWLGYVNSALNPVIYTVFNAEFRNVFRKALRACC
Experimental: as §1, §2

[2] = target: T8, human GABAA α1β3γ2 receptor (Homo sapiens, UniProt P14867+P18507+P28472); experiment: GABAA Functional Assay, α1β3γ2, Xenopus oocytes; assay type: cell-based
T8 construct: expressed in transfected cells; host or cells: Xenopus laevis oocytes, cDNA injection
T8 sequence (P14867 28-456): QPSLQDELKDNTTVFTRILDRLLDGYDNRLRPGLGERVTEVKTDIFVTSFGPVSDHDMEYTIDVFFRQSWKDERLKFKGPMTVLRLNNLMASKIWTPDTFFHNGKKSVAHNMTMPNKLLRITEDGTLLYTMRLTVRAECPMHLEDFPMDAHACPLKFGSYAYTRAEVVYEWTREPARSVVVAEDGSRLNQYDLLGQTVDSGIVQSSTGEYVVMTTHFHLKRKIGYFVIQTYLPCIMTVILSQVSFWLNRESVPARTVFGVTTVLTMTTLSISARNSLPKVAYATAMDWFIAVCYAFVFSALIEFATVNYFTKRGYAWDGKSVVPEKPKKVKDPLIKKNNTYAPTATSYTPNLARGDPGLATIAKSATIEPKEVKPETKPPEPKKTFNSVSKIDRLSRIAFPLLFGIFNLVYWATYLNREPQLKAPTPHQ
T8 sequence (P28472 26-473): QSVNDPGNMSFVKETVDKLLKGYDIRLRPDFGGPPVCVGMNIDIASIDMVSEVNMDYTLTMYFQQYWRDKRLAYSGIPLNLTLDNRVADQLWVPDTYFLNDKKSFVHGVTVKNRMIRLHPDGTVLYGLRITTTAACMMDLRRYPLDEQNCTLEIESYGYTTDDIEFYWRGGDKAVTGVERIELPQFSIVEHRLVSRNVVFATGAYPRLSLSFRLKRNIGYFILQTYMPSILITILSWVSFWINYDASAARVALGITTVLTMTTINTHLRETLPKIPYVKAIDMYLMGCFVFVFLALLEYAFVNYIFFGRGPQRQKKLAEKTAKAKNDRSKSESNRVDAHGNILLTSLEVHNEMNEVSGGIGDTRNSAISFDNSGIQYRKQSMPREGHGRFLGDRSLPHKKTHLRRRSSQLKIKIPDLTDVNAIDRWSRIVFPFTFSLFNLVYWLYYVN
T8 sequence (P18507 40-475): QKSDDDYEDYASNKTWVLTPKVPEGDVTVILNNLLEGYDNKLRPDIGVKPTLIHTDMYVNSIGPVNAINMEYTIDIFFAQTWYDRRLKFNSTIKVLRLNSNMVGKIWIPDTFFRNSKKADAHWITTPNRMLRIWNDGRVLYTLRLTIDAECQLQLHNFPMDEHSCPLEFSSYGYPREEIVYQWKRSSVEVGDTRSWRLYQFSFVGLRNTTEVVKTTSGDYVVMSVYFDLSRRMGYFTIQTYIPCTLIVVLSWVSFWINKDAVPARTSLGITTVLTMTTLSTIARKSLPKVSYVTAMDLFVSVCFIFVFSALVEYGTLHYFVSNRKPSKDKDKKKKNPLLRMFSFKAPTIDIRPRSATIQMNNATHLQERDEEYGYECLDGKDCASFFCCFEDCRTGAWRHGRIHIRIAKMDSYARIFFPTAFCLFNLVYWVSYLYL

T1 sequence (P25021 whole entry): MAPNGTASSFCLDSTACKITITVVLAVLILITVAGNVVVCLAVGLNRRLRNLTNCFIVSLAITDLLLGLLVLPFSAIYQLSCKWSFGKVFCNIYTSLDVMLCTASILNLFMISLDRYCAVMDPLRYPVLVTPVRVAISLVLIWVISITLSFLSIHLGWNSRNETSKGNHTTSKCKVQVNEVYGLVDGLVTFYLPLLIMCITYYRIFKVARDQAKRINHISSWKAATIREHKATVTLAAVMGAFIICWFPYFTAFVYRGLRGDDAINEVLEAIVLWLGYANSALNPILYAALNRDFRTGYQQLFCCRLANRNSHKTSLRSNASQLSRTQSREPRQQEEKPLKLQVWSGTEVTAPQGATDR

Row | SMILES | inhibition at 10 µM (Histamine H2 (h)) [%] | inhibition at 10 µM (Somatostatin sst5 (h)) [%] | % Inhibition of Control Specific Binding @ 10 μM (Muscarinic M (ns)) [%] | % Inhibition of Control Values @ 10 μM (COMT) [%] | inhibition at 10 µM (Angiotensin AT2 (h)) [%] | % Injected Radioactivity (%) [1] [%] | % Recovered Radioactivity (%) [1] [%] | Peak Area (mV) [1] [mV] | Peak Height (mV) [1] [mV] | inhibition at 10 µM (acetylcholinesterase (h)) [%] | inhibition at 10 µM (tyrosine hydroxylase) [%] | inhibition at 10 µM (PDE1B (h)) [%] | inhibition at 10 µM (Dopamine D4.4 (h)) [%] | IC50 ([2]; antagonist protocol, Xenopus oocytes, read-out: α1β3γ2 receptor derived IC50) [µM] | agonist activity at α1β3γ2 GABAA receptor (inward currents) ([2]; single exposure 30 sec)
1 | CC1(C)C(=O)N(c2ccc(C#N)c(C(F)(F)F)c2)C(=S)N1c1ccc(C(=O)O)c(F)c1 [(MI), 4-(3-(4-cyano-3-(trifluoromethyl)phenyl)-5,5-dimethyl-4-oxo-2-thioxoimidazolidin-1-yl)-2-fluorobenzoic acid] | -41 | -25 | 18 | 1 | -1 | 11.02 | 17.31 | 589 | 86 | 51 | -4 | 0 | 1 | 68.3 ± 6 | –
2 | CC1(C)C(=O)N(c2ccc(C#N)c(C(F)(F)F)c2)C(=S)N1c1ccc(C(N)=O)c(F)c1 [(MII), 4-(3-(4-Cyano-3-(trifluoromethyl)phenyl)-5,5-dimethyl-4-oxo-2-thioxoimidazolidin-1-yl)-2-fluorobenzamide] | -27 | 16 | 1 | −1 | -6 | 5.38 | 8.45 | 288 | 43 | 9 | 2 | -11 | 9 | – | –
3 | CC1(C)C(=O)N(c2ccc(C#N)c(C(F)(F)F)c2)C(=O)N1c1ccc(C(N)=O)c(F)c1 [(MIII), 4-(3-(4-cyano-3-(trifluoromethyl)phenyl)-5,5-dimethyl-2,4-dioxoimidazolidin-1-yl)-2-fluorobenzamide] | -19 | 2 | 20 | −1 | -2 | 7.96 | 12.50 | 426 | 77 | -1 | -2 | -8 | 13 | – | –
4 | CNC(=O)c1ccc(N2C(=O)N(c3ccc(C#N)c(C(F)(F)F)c3)C(=O)C2(C)C)cc1F [(MIV), 4-(3-(4-cyano-3-(trifluoromethyl)phenyl)-5,5-dimethyl-2,4-dioxoimidazolidin-1-yl)-2-fluoro-N-methylbenzamide] | -20 | -7 | 25 | 0 | 1 | 8.45 | 13.27 | 452 | 63 | 23 | -2 | -2 | -15 | – | did not evoke any detectable inward currents
